Experimental data reported in ChEMBL document CHEMBL3045241, “Design, synthesis, and docking studies of novel telmisartanglitazone hybrid analogs for the treatment of metabolic syndrome” (Med Chem Res, 2009).
Calls of active or inactive are those of the source. The rule behind the calls is not given here.

How the values were obtained:
[1] = molecular target: T1, Type-1 angiotensin II receptor A (Rattus norvegicus, UniProt P25095); experiment: Displacement of [125I]-SI-Ang-2 from AT1 receptor in Rattus norvegicus Sprague-Dawley (rat) liver membranes after 2 hr; design: species or system Membrane
T1 sequence (P25095 whole entry): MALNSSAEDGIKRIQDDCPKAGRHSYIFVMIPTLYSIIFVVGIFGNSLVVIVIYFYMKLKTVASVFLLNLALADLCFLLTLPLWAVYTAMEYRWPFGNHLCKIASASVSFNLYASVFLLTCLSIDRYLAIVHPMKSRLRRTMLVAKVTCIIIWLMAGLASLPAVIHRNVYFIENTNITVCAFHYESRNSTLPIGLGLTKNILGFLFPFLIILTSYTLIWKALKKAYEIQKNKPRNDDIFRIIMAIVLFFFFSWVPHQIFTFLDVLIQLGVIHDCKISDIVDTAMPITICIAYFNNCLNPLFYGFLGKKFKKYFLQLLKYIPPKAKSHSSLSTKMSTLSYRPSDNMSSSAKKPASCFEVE

[2] = molecular target: T2, Peroxisome proliferator-activated receptor gamma (Mus musculus) (UniProt P37238); experiment: Agonist activity at Mus musculus (mouse) PPARgamma LBD expressed in african green monkey CV-1 cells co-expressing GAL4 assessed as […] at 1 uM after 24 hr by luciferase assay relative to rosiglitazone; type: cell-based
T2 sequence (whole entry): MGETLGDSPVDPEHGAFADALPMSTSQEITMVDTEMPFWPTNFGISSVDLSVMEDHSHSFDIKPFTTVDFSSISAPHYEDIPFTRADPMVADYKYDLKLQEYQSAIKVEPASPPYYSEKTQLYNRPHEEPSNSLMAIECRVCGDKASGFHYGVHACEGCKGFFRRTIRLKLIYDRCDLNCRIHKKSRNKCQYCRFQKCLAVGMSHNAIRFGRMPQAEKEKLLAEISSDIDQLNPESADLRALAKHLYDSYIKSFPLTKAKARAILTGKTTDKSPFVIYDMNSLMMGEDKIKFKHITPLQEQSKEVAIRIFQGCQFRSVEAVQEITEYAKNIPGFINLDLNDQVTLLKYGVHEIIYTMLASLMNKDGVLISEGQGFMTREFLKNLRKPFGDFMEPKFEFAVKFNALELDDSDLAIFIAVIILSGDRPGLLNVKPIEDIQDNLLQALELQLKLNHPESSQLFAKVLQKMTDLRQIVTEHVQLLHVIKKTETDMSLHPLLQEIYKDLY

3T3-L1 = experiment: Induction of adipocyte differentiation in Mus musculus (mouse) 3T3L1 cells at 1 to 5 uM; type: functional, cell-based

Row | Ki [1] | %max [2] | SMILES | Activity (3T3-L1)
1 | > 10 µM | 38.7% | COC(=O)c1cc(CC2SC(=O)NC2=O)ccc1OCCn1c(CCCCC2CCCCC2)nc2ccccc21 (stereo unspecified) | –
2 | > 10 µM | 11.9% | CCCc1nc2c(C)cc(-c3ccccc3)cc2n1CCOc1ccc(CC2SC(=O)NC2=O)cc1C(=O)OC (stereo unspecified) | –
3 | > 10 µM | 51.6% | CCCc1nc2c(C)cc(Br)cc2n1CCOc1ccc(CC2SC(=O)NC2=O)cc1C(=O)OC (stereo unspecified) | –
4 | > 10 µM | 90.4% | COC(=O)c1cc(CC2SC(=O)NC2=O)ccc1OCCN(C)C(=O)CCCCC1CCCCC1 (stereo unspecified) | –
5 | – | 21.2% | CCCc1nc2c(C)cc(-c3nc4ccccc4n3C)cc2n1Cc1ccc(-c2ccccc2C(=O)O)cc1 | Active
6 | > 10 µM | – | CCCc1nc2c(C)cc(-c3nc4ccccc4n3C)cc2n1CCOc1ccc(CC2SC(=O)NC2=O)cc1C(=O)OC (stereo unspecified) | –
